Source: patent publication US11273152B2, “TRPV2 antagonists” (Instituto de Medicina Molecular João Lobo Antunes, priority 2017, dated 2022)
Entries after “also recorded” stand apart in the source; their conditions may differ.

Key:
[1] = target: T1, TRPV2 (Homo sapiens, UniProt Q9Y5S1); assay: Fluorescence cell-based assay, TRPV2 (cannabidiol-evoked calcium influx); conditions: TRPV2
T1 sequence (Q9Y5S1 1-764): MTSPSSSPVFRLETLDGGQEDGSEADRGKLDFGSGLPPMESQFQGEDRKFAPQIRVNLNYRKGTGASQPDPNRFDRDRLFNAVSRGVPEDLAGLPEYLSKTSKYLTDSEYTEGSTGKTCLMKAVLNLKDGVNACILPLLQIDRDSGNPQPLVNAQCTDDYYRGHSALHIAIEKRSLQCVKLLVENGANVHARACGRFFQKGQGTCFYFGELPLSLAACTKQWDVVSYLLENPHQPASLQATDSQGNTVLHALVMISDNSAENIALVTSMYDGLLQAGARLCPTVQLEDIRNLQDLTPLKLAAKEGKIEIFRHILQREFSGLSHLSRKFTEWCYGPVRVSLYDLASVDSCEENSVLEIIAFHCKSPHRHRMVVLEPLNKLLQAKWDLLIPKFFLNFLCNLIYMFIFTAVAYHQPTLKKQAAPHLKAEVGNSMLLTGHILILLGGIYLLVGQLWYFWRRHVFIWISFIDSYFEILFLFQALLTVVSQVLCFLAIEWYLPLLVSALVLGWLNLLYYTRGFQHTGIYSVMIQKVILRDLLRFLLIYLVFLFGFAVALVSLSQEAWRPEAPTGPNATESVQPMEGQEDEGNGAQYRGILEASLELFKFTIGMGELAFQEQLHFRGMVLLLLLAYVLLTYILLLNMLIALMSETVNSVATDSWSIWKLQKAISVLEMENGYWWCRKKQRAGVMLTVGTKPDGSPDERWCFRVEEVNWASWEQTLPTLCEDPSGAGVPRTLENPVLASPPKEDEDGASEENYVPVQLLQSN
Protocol: (§1) The assays were performed at SB Discovery (Glasgow, UK) on a fee-for-service basis. Human TRP cells were trypsinised, counted and seeded in black, clear-bottomed 96 well plates at a density of 50,000 cells per well in 100 μL volume and incubated overnight. Next day, the cells were loaded with calcium 5 dye or membrane potential dye. TRPV1-5, TRPA1, TRPM2, TRPM3, and TRPM8 were tested using the calcium 5 dye. TRPC1, TRPC3-7, and TRPM4-5 were tested using the membrane potential dye. Both dye solutions were made up in HEPES buffered Hank's balanced salt solution (HBSS). Dye solution (90 μL) was added to the wells and incubated at 37° C. for 1 hour. Test compounds and standard inhibitors (10 μL) were then added to the wells and incubated at room temperature for 10 minutes. The plates were then placed in the flexstation and fluorescence monitored every 1.52 seconds. After 20 seconds agonist was added and the fluorescence monitored for 2 minutes at 485 nm/525 nm and 530 nm/565 nm, Ex/Em, for the calcium 5 dye and the membrane potential dye respectively. Controls-TRPV1: capsazepine; TRPV2: tranilast; TRPV3: ruthenium red; TRPV4: ruthenium red; TRPV5: Gd^3+; TRPA1, ruthenium red; TRPC1: Gd^3+; TRPC3: Pyr3; TRPC4: ML 204; TRPC5: ML 204; TRPC6: ML 204; TRPC7: SKF 96365; TRPM2: 2-APB; TRPM3: Mef acid; TRPM4: clotrimazole; TRPM5: TPPO; TRPM8: 2-APB. Control data was in all cases within historical range.

[2] = target: TRPC6 (Homo sapiens, UniProt Q9Y210); assay: Fluorescence cell-based assay, TRPC6; conditions: membrane potential dye, duplicate
Protocol: as §1, with “Control data was in all cases within historical range.” left out

[3] = target: TRPM2 (Homo sapiens, UniProt O94759); assay: Fluorescence cell-based assay, TRPM2; conditions: calcium 5 dye, duplicate
Protocol: as §1, with “Control data was in all cases within historical range.” left out

[4] = target: TRPM3 (Homo sapiens, UniProt Q9HCF6); assay: Fluorescence cell-based assay, TRPM3; conditions: calcium 5 dye, duplicate
Protocol: as §1, with “Control data was in all cases within historical range.” left out

[5] = target: T1, TRPV2; assay: Intracellular calcium imaging (Fura-2 AM) in HepG2 cells; format: cell-based; conditions: 1 at 5 μM
Protocol: Cells (ATCC) were grown to 50% confluency in DMEM (Gibco) supplemented with 10% FBS (Gibco), GlutaMax (Gibco), MEM and NEAA (Gibco), 4.5 g/L glucose and 0.11 g/L sodium pyruvate. Cells were seeded in μ-ibidi 8 well plates and transfected with TRPV2-RFP^34 (kindly gifted by Prof. Itaru Kojimu Gunma University, Japan). After 48 h of incubation, cells were subjected to calcium imaging. Intracellular calcium measurements were performed with Fura-2 AM (Life Technologies) and modified from previously described studies.^12 In short, 1 hour before the measurement, cells were loaded with 5 μM Fura-2-AM for 45 minutes. Cell medium was replaced by Tyrod's solution (119 mM NaCl, 5 mM KCl, 2 mM CaCl2, 2 mM MgCl2, 6 g/L glucose, 25 mM HEPES pH 7.4). Simultaneously, the respective treatment was added to the cells (final concentration of 1% DMSO (control), 5 μM piperlongumine and 10 μM tranilast) and cells were allowed to re-adjustment for 15 minutes. Fura-2 AM emissions from 340 nm and 380 nm excitation were recorded for 1 minute before TRPV2 was activated by addition of 4 μM or 20 μM cannabidiol (CBD). Image analysis was done using the MetaFluor Analyst software. The statistical analysis was performed with astatsa.com. After calcium imaging acquisition, the cells were immediately fixed with 4% paraformaldehyde for 15 min. […]

[6] = tested on: sperm whale TRPV2 orthologue; assay: Isothermal titration calorimetry, sperm whale TRPV2; format: binding; conditions: sperm whale TRPV2 constructs; 100 μM
[7] = tested on: chiru TRPV2 orthologue; assay: Isothermal titration calorimetry, chiru TRPV2; format: binding; conditions: chiru TRPV2 constructs; 100 μM
[8] = tested on: LNCaP cell line; assay: Cell viability, LNCaP; format: cell-based; conditions: 5 and 10 μM, 24 hours
Protocol: 5,000 cells/well were seeded in 96 well plates with DMEM containing 2% FBS. The next day piperlongumine was added at various concentrations. […] At 24, 48 and 72 hours the media was removed and replaced with CellTiter-Blue (Promega, 1:20 in media). The plate was incubated for 90 minutes before measuring fluorescence intensity.

[9] = target: T1, TRPV2; assay: Co-incubation experiments with cannabidiol (mode of binding); format: cell-based

Sequence of TRPM2 (O94759 whole entry): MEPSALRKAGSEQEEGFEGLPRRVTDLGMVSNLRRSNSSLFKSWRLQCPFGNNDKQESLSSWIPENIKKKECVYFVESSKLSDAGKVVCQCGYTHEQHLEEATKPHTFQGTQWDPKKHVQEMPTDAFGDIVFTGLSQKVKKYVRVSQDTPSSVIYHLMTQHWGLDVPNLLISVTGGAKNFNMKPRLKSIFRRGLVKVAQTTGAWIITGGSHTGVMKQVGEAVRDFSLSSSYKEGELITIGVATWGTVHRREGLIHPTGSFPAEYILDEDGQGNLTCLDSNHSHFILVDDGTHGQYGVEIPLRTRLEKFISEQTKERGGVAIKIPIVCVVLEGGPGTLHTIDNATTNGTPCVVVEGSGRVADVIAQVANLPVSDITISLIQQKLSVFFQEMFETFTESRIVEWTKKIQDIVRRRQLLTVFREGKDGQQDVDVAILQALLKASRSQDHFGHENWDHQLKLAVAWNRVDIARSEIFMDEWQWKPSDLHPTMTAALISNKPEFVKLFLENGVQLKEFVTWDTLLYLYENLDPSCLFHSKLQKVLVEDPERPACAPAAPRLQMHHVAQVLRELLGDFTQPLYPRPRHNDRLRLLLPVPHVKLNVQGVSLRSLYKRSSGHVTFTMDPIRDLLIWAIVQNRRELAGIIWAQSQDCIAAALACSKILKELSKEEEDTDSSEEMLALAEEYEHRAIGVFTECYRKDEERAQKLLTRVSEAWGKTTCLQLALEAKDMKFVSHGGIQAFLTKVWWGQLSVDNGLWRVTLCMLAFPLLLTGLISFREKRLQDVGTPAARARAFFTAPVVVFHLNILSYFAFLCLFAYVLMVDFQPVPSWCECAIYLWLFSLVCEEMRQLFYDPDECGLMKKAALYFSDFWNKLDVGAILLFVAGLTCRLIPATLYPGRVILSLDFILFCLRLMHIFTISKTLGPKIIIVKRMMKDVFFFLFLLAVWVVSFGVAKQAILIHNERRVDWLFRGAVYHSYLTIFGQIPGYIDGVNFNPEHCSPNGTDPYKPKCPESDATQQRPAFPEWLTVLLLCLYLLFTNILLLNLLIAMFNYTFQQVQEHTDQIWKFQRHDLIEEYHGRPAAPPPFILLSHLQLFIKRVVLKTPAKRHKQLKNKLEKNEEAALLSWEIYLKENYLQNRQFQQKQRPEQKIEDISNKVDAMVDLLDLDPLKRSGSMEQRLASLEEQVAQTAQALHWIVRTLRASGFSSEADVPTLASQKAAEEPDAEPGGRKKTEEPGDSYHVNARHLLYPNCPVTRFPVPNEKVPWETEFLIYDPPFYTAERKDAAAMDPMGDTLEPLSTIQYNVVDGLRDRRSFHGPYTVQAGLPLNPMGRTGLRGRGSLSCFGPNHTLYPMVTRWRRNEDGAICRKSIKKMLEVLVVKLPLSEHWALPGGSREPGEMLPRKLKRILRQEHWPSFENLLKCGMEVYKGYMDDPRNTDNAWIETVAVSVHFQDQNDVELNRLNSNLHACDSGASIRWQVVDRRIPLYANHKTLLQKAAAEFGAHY
Sequence of TRPM3 (Q9HCF6 whole entry): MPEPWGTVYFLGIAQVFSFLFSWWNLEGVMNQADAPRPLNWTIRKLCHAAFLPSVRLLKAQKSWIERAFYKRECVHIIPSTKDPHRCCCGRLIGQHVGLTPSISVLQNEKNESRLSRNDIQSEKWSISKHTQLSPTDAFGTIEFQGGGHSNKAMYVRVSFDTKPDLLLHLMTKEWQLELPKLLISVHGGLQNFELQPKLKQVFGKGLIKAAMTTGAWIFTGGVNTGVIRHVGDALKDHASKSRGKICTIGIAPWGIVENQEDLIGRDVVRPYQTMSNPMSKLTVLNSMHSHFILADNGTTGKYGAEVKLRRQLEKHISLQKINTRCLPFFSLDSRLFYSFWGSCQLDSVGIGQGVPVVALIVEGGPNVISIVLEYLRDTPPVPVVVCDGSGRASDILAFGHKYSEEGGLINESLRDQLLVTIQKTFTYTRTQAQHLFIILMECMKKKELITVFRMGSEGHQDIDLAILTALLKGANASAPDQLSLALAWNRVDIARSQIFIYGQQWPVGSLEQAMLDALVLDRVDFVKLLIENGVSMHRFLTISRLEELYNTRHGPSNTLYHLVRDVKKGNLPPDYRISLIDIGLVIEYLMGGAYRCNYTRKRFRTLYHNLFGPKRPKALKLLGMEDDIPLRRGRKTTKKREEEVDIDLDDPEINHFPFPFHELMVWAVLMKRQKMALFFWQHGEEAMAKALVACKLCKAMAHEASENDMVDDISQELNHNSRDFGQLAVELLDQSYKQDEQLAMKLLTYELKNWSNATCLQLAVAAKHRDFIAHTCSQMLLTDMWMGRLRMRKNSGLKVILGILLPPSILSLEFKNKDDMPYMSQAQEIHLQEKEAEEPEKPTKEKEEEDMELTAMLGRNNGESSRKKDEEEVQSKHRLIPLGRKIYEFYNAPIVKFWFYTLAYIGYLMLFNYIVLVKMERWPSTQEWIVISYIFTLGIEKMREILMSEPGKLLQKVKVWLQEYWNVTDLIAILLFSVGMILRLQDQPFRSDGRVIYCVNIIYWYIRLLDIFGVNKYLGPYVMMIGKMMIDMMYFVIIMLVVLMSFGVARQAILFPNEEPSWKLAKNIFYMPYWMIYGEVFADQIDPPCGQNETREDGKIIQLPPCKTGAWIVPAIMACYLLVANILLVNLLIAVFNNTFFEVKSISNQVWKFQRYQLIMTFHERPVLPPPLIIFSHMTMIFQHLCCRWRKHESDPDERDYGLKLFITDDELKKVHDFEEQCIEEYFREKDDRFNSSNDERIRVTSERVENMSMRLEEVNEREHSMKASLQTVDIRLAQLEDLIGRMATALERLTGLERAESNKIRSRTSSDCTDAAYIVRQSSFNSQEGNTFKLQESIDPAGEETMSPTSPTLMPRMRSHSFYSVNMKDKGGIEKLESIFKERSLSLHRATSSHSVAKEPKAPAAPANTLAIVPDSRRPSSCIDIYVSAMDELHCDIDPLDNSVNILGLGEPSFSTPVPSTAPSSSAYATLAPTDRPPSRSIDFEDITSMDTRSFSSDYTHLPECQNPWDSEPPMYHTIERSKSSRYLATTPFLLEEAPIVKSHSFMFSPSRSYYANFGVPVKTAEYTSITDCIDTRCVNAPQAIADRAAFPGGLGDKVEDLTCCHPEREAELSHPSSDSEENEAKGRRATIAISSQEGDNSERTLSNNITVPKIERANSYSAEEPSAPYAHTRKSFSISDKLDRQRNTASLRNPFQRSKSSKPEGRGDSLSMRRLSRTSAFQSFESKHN
Sequence of TRPC6 (Q9Y210 whole entry): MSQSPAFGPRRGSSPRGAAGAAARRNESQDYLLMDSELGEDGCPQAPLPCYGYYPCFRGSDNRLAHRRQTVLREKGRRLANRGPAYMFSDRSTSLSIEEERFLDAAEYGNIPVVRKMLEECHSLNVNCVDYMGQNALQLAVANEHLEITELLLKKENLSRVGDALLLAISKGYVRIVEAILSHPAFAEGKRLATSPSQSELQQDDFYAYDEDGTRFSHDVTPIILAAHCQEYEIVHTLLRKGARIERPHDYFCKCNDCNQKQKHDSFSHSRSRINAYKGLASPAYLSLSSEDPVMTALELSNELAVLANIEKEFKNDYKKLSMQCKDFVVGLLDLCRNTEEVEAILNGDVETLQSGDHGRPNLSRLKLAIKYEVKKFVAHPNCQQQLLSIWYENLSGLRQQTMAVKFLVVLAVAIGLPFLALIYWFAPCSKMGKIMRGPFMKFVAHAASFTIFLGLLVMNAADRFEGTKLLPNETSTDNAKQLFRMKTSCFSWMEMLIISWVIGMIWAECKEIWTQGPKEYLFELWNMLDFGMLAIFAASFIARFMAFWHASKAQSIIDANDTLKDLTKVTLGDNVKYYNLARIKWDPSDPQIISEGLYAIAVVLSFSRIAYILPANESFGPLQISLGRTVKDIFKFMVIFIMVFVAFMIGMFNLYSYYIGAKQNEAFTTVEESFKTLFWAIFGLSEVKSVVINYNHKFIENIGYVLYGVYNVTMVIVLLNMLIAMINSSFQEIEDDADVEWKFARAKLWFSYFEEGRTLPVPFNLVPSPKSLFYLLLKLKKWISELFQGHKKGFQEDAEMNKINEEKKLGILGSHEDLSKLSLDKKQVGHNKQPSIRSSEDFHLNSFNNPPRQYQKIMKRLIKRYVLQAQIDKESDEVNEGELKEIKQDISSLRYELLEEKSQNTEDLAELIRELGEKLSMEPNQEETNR

Question: Which “Ligand Efficiency” value [1] does the source give for COc1cc(/C=C/C(=O)N2CCC=CC2=O)cc(OC)c1OC [Compound 1, piperlongumine] here?
Answer: The value was 0.32.

Question: What about the IC50 ([1]; calcium 5 dye, spread in log units, duplicate, read-out: IC50/μM ± SD) of the same molecule?
Answer: Its IC50 is 4.6 µM.

Question: And the IC50 [2]?
Answer: Its IC50 is greater than 100 µM.

Question: And the IC50 [3]?
Answer: Its IC50 is greater than 100 µM.

Question: And the IC50 [4]?
Answer: The IC50 was greater than 100 µM.

Question: And the “Inhibition of CBD evoked calcium influx in HepG2 cells” value ([5]; CBD 4 μM)?
Answer: Its value is “No statistically significant difference is observed between all samples”.

Question: And the “Inhibition of CBD evoked calcium influx in HepG2 cells” value ([5]; CBD 20 μM, 120 s post stimulation)?
Answer: The value was “significantly inhibited; also recorded: significant difference between control and 1 (p<0.01)”.

Question: What about the “Binding by isothermal titration calorimetry” value [6] of the same molecule?
Answer: The value was “did not bind”.

Question: And the “Binding by isothermal titration calorimetry” value [7]?
Answer: Its value is “did not bind”.

Question: What about the Cell viability [8] of the same molecule?
Answer: The Cell viability was “cell viability was compromised”.

Question: And the Mode of antagonism ([9]; EC50 curves of cannabidiol with increasing concentrations of 1)?
Answer: Its Mode of antagonism is “non-competitive (allosteric) antagonism”.

Question: What about the “Concentration of 1 above which apparent vmax of cannabidiol is reduced” value ([9]; Michaelis-Menten analysis) of the same molecule?
Answer: Its value is “higher than 5 pM”.
